Results from US20250353874A1, “GLUCOCORTICOID RECEPTOR AGONISTS” (Eli Lilly and Company, priority 2021, published 2025).
Like-named read-outs stand apart in the source and are kept apart here.

Molecular target: hGR (GR-LBD) (Homo sapiens (Human), UniProt P04150)
Assay: hGR CoActivator Recruitment Assay (LanthaScreen TR-Fret GR Coactivator Assay)
Assay type: biochemical
Details: top concentration 200 nM
Procedure: hGR CoActivator Recruitment Assay
The activity of glucocorticoid compounds was measured using the LanthaScreen TR-Fret GR Coactivator Assay from Life Technologies (A15899). The compounds were acoustically transferred to an assay plate in a 3-fold 10-point serial dilution with a top concentration of 200 nM. Ten microliters of a 2× solution of GR-LBD was added to the compound plate and incubated for 10 min. Then ten microliters of a 2× solution of Fluoresein-SRC1-4 and Tb labelled anti-GST antibody were added to the plate. The plate was incubated in the dark for two hours and then read on an Envision plate reader, with excitation at 340 nm and emission at 520 nm (Fluorescein) and 490 nm (Terbium). The emission ratio of 520/490 was analyzed in Genedata. To obtain percent activity, the data was compared to a negative control of DMSO and positive control of 4 uM dexamethasone.

[1] = 10-point dilution, positive control 4 uM dexamethasone, read-out: IC50

hGR (GR-LBD), sequence (P04150 524-758): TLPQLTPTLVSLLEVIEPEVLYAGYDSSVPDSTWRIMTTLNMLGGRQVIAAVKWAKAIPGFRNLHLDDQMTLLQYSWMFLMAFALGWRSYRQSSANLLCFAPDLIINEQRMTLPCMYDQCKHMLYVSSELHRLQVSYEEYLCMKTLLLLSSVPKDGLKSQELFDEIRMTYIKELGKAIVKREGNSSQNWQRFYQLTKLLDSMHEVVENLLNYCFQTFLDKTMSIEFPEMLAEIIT

| IC50 (read-out: relative IC50) | SMILES | IC50 [1] |
| --- | --- | --- |
|  | Cc1ccc(OCc2cccc(N)c2)c(F)c1[C@@H]1O[C@@H]2C[C@H]3[C@@H]4CCC5=CC(=O)C=C[C@]5(C)[C@H]4[C@@H](O)C[C@]3(C)[C@]2(C(=O)CO)O1 [Example 1, (6aR,6bS,7S,8aS,8bS,10R,11aR,12aS,12bS)-10-(3-((3-Aminobenzyl)oxy)-2-fluoro-6-methylphenyl)-7-hydroxy-8b-(2-hydroxyacetyl)-6a,8a-dimethyl-1,2,6a,6b,7,8,8a,8b,11a,12,12a,12b-dodecahydro-4H-naphtho[2′,1′:4,5]indeno[1,2-d][1,3]dioxol-4-one] | 2.12 nM |
|  | Cc1ccc(OCc2cccc(N)c2)c(F)c1[C@H]1O[C@@H]2C[C@H]3[C@@H]4CCC5=CC(=O)C=C[C@]5(C)[C@H]4[C@@H](O)C[C@]3(C)[C@]2(C(=O)CO)O1 [Example 2, (6aR,6bS,7S,8aS,8bS,10S,11aR,12aS,12bS)-10-(3-((3-Aminobenzyl)oxy)-2-fluoro-6-methylphenyl)-7-hydroxy-8b-(2-hydroxyacetyl)-6a,8a-dimethyl-1,2,6a,6b,7,8,8a,8b,11a,12,12a,12b-dodecahydro-4H-naphtho[2′,1′:4,5]indeno[1,2-d][1,3]dioxol-4-one] | 1.44 nM |
|  | COc1ccc(OCc2cccc(N)c2)c(F)c1[C@@H]1O[C@@H]2C[C@H]3[C@@H]4CCC5=CC(=O)C=C[C@]5(C)[C@H]4[C@@H](O)C[C@]3(C)[C@]2(C(=O)CO)O1 [Example 4, (6aR,6bS,7S,8aS,8bS,10R,11aR,12aS,12bS)-10-(3-((3-Aminobenzyl)oxy)-2-fluoro-6-methoxyphenyl)-7-hydroxy-8b-(2-hydroxyacetyl)-6a,8a-dimethyl-1,2,6a,6b,7,8,8a,8b,11a,12,12a,12b-dodecahydro-4H-naphtho[2′,1′:4,5]indeno[1,2-d][1,3]dioxol-4-one] | 2.47 nM |
|  | COc1ccc(OCc2cccc(N)c2)c(F)c1[C@H]1O[C@@H]2C[C@H]3[C@@H]4CCC5=CC(=O)C=C[C@]5(C)[C@H]4[C@@H](O)C[C@]3(C)[C@]2(C(=O)CO)O1 [Example 5, (6aR,6bS,7S,8aS,8bS,10S,11aR,12aS,12bS)-10-(3-((3-Aminobenzyl)oxy)-2-fluoro-6-methoxyphenyl)-7-hydroxy-8b-(2-hydroxyacetyl)-6a,8a-dimethyl-1,2,6a,6b,7,8,8a,8b,11a,12,12a,12b-dodecahydro-4H-naphtho[2′,1′:4,5]indeno[1,2-d][1,3]dioxol-4-one] | 1.4 nM |
| > 200 nM | C[C@]12C=CC(=O)C=C1CC[C@@H]1[C@@H]2[C@@H](O)C[C@@]2(C)[C@H]1C[C@H]1O[C@H](c3c(F)cccc3OCc3cccc(N)c3)O[C@]12C(=O)CO [Example 45, (6aR,6bS,7S,8aS,8bS,10S,11aR,12aS,12bS)-10-(2-((3-aminobenzyl)oxy)-6-fluorophenyl)-7-hydroxy-8b-(2-hydroxyacetyl)-6a,8a-dimethyl-1,2,6a,6b,7,8,8a,8b,11a,12,12a,12b-dodecahydro-4H-naphtho[2′,1′:4,5]indeno[1,2-d][1,3]dioxol-4-one] |  |
| > 200 nM | C[C@]12C=CC(=O)C=C1CC[C@@H]1[C@@H]2[C@@H](O)C[C@@]2(C)[C@H]1C[C@H]1O[C@H](c3c(Cl)cccc3OCc3cccc(N)c3)O[C@]12C(=O)CO [Example 52, (6aR,6bS,7S,8aS,8bS,10S,11aR,12aS,12bS)-10-(2-((3-aminobenzyl)oxy)-6-chlorophenyl)-7-hydroxy-8b-(2-hydroxyacetyl)-6a,8a-dimethyl-1,2,6a,6b,7,8,8a,8b,11a,12,12a,12b-dodecahydro-4H-naphtho[2′,1′:4,5]indeno[1,2-d][1,3]dioxol-4-one] |  |
| > 200 nM | Cc1ccc(OCc2ccccc2N)cc1[C@@H]1O[C@@H]2C[C@H]3[C@@H]4CCC5=CC(=O)C=C[C@]5(C)[C@H]4[C@@H](O)C[C@]3(C)[C@]2(C(=O)CO)O1 [Example 80, (6aR,6bS,7S,8aS,8bS,10R,11aR,12aS,12bS)-10-(5-((2-aminobenzyl)oxy)-2-methylphenyl)-7-hydroxy-8b-(2-hydroxyacetyl)-6a,8a-dimethyl-1,2,6a,6b,7,8,8a,8b,11a,12,12a,12b-dodecahydro-4H-naphtho[2′,1′:4,5]indeno[1,2-d][1,3]dioxol-4-one] |  |
